Results as given in patent EP3660147A1, “PROCESS FOR SELECTIVE SYNTHESIS OF 4-HYDROXYISOPHORONE AND 4-KETOISOPHORONE BY FUNGAL PEROXYGENASES” (Consejo Superior de Investigaciones Científicas (CSIC), priority 2018, dated 2020).
Values joined by “and” are separate entries in the source; they are usually repeats but may differ in a detail not shown here. Equal entries are not always repeated.

What was measured:
[1] = tested on: Humicola insolens unspecific peroxygenase rHinUPO, recombinant protein, SEQ ID NO 2; assay: Enzyme kinetics of isophorone hydroxylation (GC-MS product quantification); assay type: biochemical; conditions: 6.25-6400 µM substrate, 100 nM enzyme, 0.5 mM H2O2, 1 min, mean of three replicates with standard errors
Text: The rCciUPO (44 kDa) and rHinUPO recombinant enzymes were provided by Novozymes A/S. rCciUPO corresponds to the protein model 7249 from the sequenced C. cinerea genome available at the JGI (http://genome.jgi.doe.gov/Copci1) used in several studies (E. D. Babot, J. C. del Río, L. Kalum, A. T. Martínez and A. Gutiérrez, Biotechnol. Bioeng. 2013, 110, 2332; E. D. Babot, J. C. del Río, M. Cañellas, F. Sancho, F. Lucas, V. Guallar, L. Kalum, H. Lund, G. Gröbe, K. Scheibner, R. Ullrich, M. Hofrichter, A. T. Martínez and A. Gutiérrez, Appl. Environ. Microbiol. 2015, 81, 4130-4142; E. D. Babot, J. C. del Río, L. Kalum, A. T. Martínez and A. Gutiérrez, ChemCatChem 2015, 7, 283-290). The rHinUPO sequence has been more recently reported (Patent US 9908860 B2) and used for oxyfunctionalizations that are not catalyzed by other UPOs. Both UPOs were expressed in Aspergillus oryzae (patent WO/2008/119780).
Reactions were carried out with 6.25-6400 µM substrate and 100 nM enzyme. […] Product quantification was carried out by GC-MS using external standard curves, and kinetic parameters - turnover number (kcat), Michaelis constant (Km) and catalytic efficiency (kcat/Km) - were obtained by fitting the data to the Michaelis-Menten equation, or the corresponding variation of this equation when substrate inhibition is occurring, using SigmaPlot (Systat Softwarwe Inc., San Jose, CA, USA). […]

[2] = tested on: Chaetomium globosum unspecific peroxygenase CglUPO, wild-type, SEQ ID NO 1; assay: as above; assay type: biochemical; conditions: 6.25-6400 µM substrate, 100 nM enzyme, 0.5 mM H2O2, 3 min, mean of three replicates with standard errors
Text: (§1) AaeUPO (isoform II, 46 kDa), the first UPO described in 2004 (R. Ullrich and M. Hofrichter, FEBS Lett. 2005, 579, 6247-6250), is a wild-type (i.e. non-recombinant) peroxygenase purified from cultures of A. aegerita TM-A1, grown in soybean-peptone medium. MroUPO is another wild-type peroxygenase (32 kDa) purified from cultures of M. rotula DSM-25031 (German Collection of Microorganisms and Cell Cultures, Braunschweig). CglUPO (36 kDa) is a third wild-type peroxygenase recently purified from cultures of C. globosum DSM-62110.
Reactions were carried out with 6.25-6400 µM substrate and 100 nM enzyme. They were initiated adding 0.5 mM H2O2 and stopped by vigorous shaking in 5 mM sodium azide. Reaction times in which the reaction velocity was linear were previously selected: 5 min for AaeUPO, 3 min for CglUPO and 1 min for rHinUPO. All reactions were performed in triplicates. Product quantification was carried out by GC-MS using external standard curves, and kinetic parameters - turnover number (kcat), Michaelis constant (Km) and catalytic efficiency (kcat/Km) - were obtained by fitting the data to the Michaelis-Menten equation, or the corresponding variation of this equation when substrate inhibition is occurring, using SigmaPlot (Systat Softwarwe Inc., San Jose, CA, USA). […]

CYP102A1 variants = conditions: isophorone hydroxylation; when decoy molecules were used; range over variants; cited from earlier work
[3] = substrate: CC1=CC(=O)CC(C)(C)C1; assay: Enzyme kinetics of isophorone hydroxylation (GC-MS product quantification); assay type: biochemical, Agrocybe aegerita; conditions: other: isophorone hydroxylation; 6.25-6400 µM substrate, 100 nM enzyme, 0.5 mM H2O2, 5 min; mean of three replicates with standard errors
Text: as §1
Reactions were carried out with 6.25-6400 µM substrate and 100 nM enzyme. They were initiated adding 0.5 mM H2O2 and stopped by vigorous shaking in 5 mM sodium azide. Reaction times in which the reaction velocity was linear were previously selected: 5 min for AaeUPO, 3 min for CglUPO and 1 min for rHinUPO. All reactions were performed in triplicates. Product quantification was carried out by GC-MS using external standard curves, and kinetic parameters - turnover number (kcat), Michaelis constant (Km) and catalytic efficiency (kcat/Km) - were obtained by fitting the data to the Michaelis-Menten equation, or the corresponding variation of this equation when substrate inhibition is occurring, using SigmaPlot (Systat Softwarwe Inc., San Jose, CA, USA).
The analyses were performed with a Shimadzu GC-MS QP 2010 Ultra system, using a fused-silica DB-5HT capillary column (30 m × 0.25 mm internal diameter, 0.1 µm film thickness) from J&W Scientific. The oven was heated from 50 °C (1.5 min) to 90 °C (2 min) at 30 °C min^-1, and then from 90 °C to 250 °C (15 min) at 8 °C min^-1. The injection was performed at 250 °C and the transfer line was kept at 300 °C. Compounds were identified by comparing their mass spectra and retention times with those of the available authentic standards and with the NIST library.

Molecule	Km [1] [µM]	kcat [1] [s⁻¹]	Km [2] [µM]	kcat [2]	Km (CYP102A1 variants) [µM]	turnover numbers (CYP102A1 variants) [s⁻¹]	Km [3] [µM]	kcat [3] [s⁻¹]	kcat/Km [3]
CC1=CC(=O)CC(C)(C)C1 [isophorone, 3,5,5-Trimethyl-2-cyclohexen-1-one]	288 ± 39.9	23.3 ± 1.4	243 ± 19.8	4.4 s⁻¹ and 3.8 ± 0.1 s⁻¹	380 to 440	2.5 to 5.5			
Agrocybe aegerita unspecific peroxygenase AaeUPO (isoform II), wild-type, SEQ ID NO 3 (Cyclocybe aegerita) (protein, is a wild-type (i.e. non-recombinant) peroxygenase purified from cultures of A. aegerita TM-A1; made in house; host or cells: Agrocybe aegerita TM-A1 cultures (native producer, non-recombinant)) EPGLPPGPLENSSAKLVNDEAHPWKPLRPGDIRGPCPGLNTLASHGYLPRNGVATPVQIINAVQEGLNFDNQAAVFATYAAHLVDGNLITDLLSIGRKTRLTGPDPPPPASVGGLNEHGTFEGDASMTRGDAFFGNNHDFNETLFEQLVDYSNRFGGGKYNLTVAGELRFKRIQDSIATNPNFSFVDFRFFTAYGETTFPANLFVDGRRDDGQLDMDAARSFFQFSRMPDDFFRAPSPRSGTGVEVVIQAHPMQPGRNVGKINSYTVDPTSSDFSTPCLMYEKFVNITVKSLYPNPTVQLRKALNTNLDFFFQGVAAGCTQVFPYGRD							1381.3 ± 196.7	20.1 ± 1.1	1.4±0.1 x 10^4 M^-1·s^-1
